Measured values taken from ChEMBL document CHEMBL3286334, “Identification of tetrapeptides from a mixture based positional scanning library that can restore nM full agonist function of the L106P, I69T, I102S, A219V, C271Y, and C271R human melanocortin-4 polymorphic receptors (hMC4Rs)” (J Med Chem, 2014).
Where a SMILES comes first, the peptide text is derived from it. [ ]: non-standard residue; d: D form. Phe(4-I) = N[C@@H](Cc1ccc(I)cc1)C(=O)O; dPhe(4-I) = N[C@H](Cc1ccc(I)cc1)C(=O)O; Tic = O=C(O)[C@@H]1Cc2ccccc2CN1; dTic = O=C(O)[C@H]1Cc2ccccc2CN1

Legend:
Type in all cases: functional, cell-based
Melanocortin receptor 4 [1] = biological target: Melanocortin receptor 4 (Homo sapiens, UniProt P32245); assay: Agonist activity at wild type human melanocortin-4 receptor expressed in HEK293 cells co-transfected with CRE/beta-galactosidase reporter gene assessed as stimulatory response after 6 hrs
Melanocortin receptor 4 [2] = biological target: Melanocortin receptor 4 (Homo sapiens, UniProt P32245, L106P); assay: Agonist activity at human melanocortin-4 receptor L106P mutant expressed in HEK293 cells co-transfected with CRE/beta-galactosidase reporter gene assessed as stimulatory response after 6 hrs
Melanocortin receptor 4 [3] = biological target: Melanocortin receptor 4 (Homo sapiens, UniProt P32245, C271Y); assay: Agonist activity at human melanocortin-4 receptor C271Y mutant expressed in HEK293 cells co-transfected with CRE/beta-galactosidase reporter gene assessed as stimulatory response after 6 hrs
[4] = biological target: Melanocyte-stimulating hormone receptor (Mus musculus, UniProt Q01727); assay: Agonist activity at mouse melanocortin-1 receptor expressed in HEK293 cells co-transfected with CRE/beta-galactosidase reporter gene assessed as stimulatory response after 6 hrs
Melanocortin receptor 3 = Melanocortin receptor 3 (Mus musculus, UniProt P33033); assay: Agonist activity at mouse melanocortin-3 receptor expressed in HEK293 cells co-transfected with CRE/beta-galactosidase reporter gene assessed as stimulatory response after 6 hrs
Melanocortin receptor 4 [5] = biological target: Melanocortin receptor 4 (Homo sapiens, UniProt P32245, I102S); assay: Agonist activity at human melanocortin-4 receptor I102S mutant expressed in HEK293 cells co-transfected with CRE/beta-galactosidase reporter gene assessed as stimulatory response after 6 hrs

Row | Structure (SMILES) | EC50 (Melanocortin receptor 4 [1]) | EC50 (Melanocortin receptor 4 [2]) | also measured
1 | CC(=O)N[C@@H](Cc1c[nH]c2ccccc12)C(=O)N[C@H](Cc1ccccc1)C(=O)N[C@@H](CCCN=C(N)N)C(=O)N[C@@H](Cc1c[nH]c2ccccc12)C(N)=O (Ac-W[dF]RW-NH2) | 32 nM | 170 nM | –
2 | CC(=O)N[C@@H](Cc1cnc[nH]1)C(=O)N[C@H](Cc1ccc(I)cc1)C(=O)N[C@@H](CCCNC(=N)N)C(=O)N[C@@H](Cc1ccc(I)cc1)C(N)=O (Ac-H[dPhe(4-I)]R[Phe(4-I)]-NH2) | – | – | EC50 (Melanocortin receptor 4 [3]): > 100000 nM; EC50 [4]: 12 nM
3 | CC(=O)N1Cc2ccccc2C[C@@H]1C(=O)N[C@H](Cc1ccccc1)C(=O)N[C@@H](CCCN=C(N)N)C(=O)N[C@@H](Cc1c[nH]c2ccccc12)C(N)=O (Ac-[dTic][dF]RW-NH2) | 297 nM | 17900 nM | –
4 | CC(=O)N[C@@H](Cc1cnc[nH]1)C(=O)N[C@H](Cc1ccc(Cl)cc1)C(=O)N[C@@H](CCCNC(=N)N)C(=O)N[C@@H](Cc1ccc(I)cc1)C(N)=O | – | – | EC50 [4]: 19 nM
5 | CC(=O)N[C@@H](CCCNC(=N)N)C(=O)N[C@H](Cc1ccccc1)C(=O)N[C@@H](CCCNC(=N)N)C(=O)N[C@@H](Cc1c[nH]c2ccccc12)C(N)=O | 1.06 nM | 124 nM | –
6 | CC(=O)N[C@@H](Cc1c[nH]cn1)C(=O)N[C@H](Cc1ccc(I)cc1)C(=O)N1Cc2ccccc2C[C@H]1C(=O)N1Cc2ccccc2C[C@H]1C(N)=O | 24 nM | 3760 nM | –
7 | CC(=O)N1Cc2ccccc2CC1C(=O)N[C@H](Cc1ccc(I)cc1)C(=O)N[C@@H](CCCNC(=N)N)C(=O)N[C@@H](Cc1ccc(I)cc1)C(N)=O (some centres undefined) | 4.26 nM | 440 nM | –
8 | CC(=O)N1Cc2ccccc2C[C@H]1C(=O)N[C@H](Cc1ccc(I)cc1)C(=O)N[C@@H](CCCNC(=N)N)C(=O)N[C@H](Cc1ccc([N+](=O)[O-])cc1)C(N)=O | 20 nM | 657 nM | –
9 | CC(=O)N[C@@H](CCCNC(=N)N)C(=O)N[C@H](Cc1ccc(I)cc1)C(=O)N[C@@H](CCCNC(=N)N)C(=O)N1Cc2ccccc2C[C@H]1C(N)=O | 57 nM | 3170 nM | –
10 | CC(=O)N[C@@H](Cc1c[nH]cn1)C(=O)N[C@H](Cc1ccc(I)cc1)C(=O)N[C@@H](CCCNC(=N)N)C(=O)N1Cc2ccccc2C[C@H]1C(N)=O (Ac-H[dPhe(4-I)]R[Tic]-NH2) | 89 nM | 6920 nM | –
11 | CC(=O)N[C@@H](CCCNC(=N)N)C(=O)N[C@H](Cc1ccc(I)cc1)C(=O)N1Cc2ccccc2CC1C(=O)N[C@@H](Cc1ccc(I)cc1)C(N)=O (some centres undefined) | 203 nM | 2230 nM | –
12 | CC(=O)N[C@@H](Cc1cnc[nH]1)C(=O)N[C@H](Cc1ccccc1)C(=O)N[C@@H](CCCNC(=N)N)C(=O)N1Cc2ccccc2CC1C(N)=O (some centres undefined) | > 10000 nM | > 100000 nM | –
13 | CC(=O)N[C@@H](CCCNC(=N)N)C(=O)N[C@H](Cc1ccc(I)cc1)C(=O)N1Cc2ccccc2CC1C(=O)N[C@H](Cc1ccc([N+](=O)[O-])cc1)C(N)=O (some centres undefined) | – | – | EC50 (Melanocortin receptor 3): 47 nM
14 | CC(=O)N[C@@H](CCCNC(=N)N)C(=O)N[C@H](Cc1ccc(Cl)cc1)C(=O)N[C@@H](CCCNC(=N)N)C(=O)N[C@@H](Cc1ccc(I)cc1)C(N)=O | – | 13 nM | EC50 (Melanocortin receptor 4 [3]): > 100000 nM
15 | CC(=O)N[C@@H](Cc1cnc[nH]1)C(=O)N[C@H](Cc1ccc(I)cc1)C(=O)N1Cc2ccccc2CC1C(=O)N[C@@H](Cc1ccc(I)cc1)C(N)=O (some centres undefined) | 7.42 nM | 570 nM | –
16 | CC(=O)N1Cc2ccccc2CC1C(=O)N[C@H](Cc1ccc(Cl)cc1)C(=O)N1Cc2ccccc2CC1C(=O)N[C@@H](Cc1ccc(I)cc1)C(N)=O (some centres undefined) | 120 nM | 2670 nM | –
17 | CC(=O)N[C@@H](CCCNC(=N)N)C(=O)N[C@H](Cc1ccc(Cl)cc1)C(=O)N1Cc2ccccc2CC1C(=O)N[C@@H](Cc1ccc(I)cc1)C(N)=O (some centres undefined) | 22 nM | 215 nM | –
18 | CC(=O)N1Cc2ccccc2C[C@H]1C(=O)N[C@H](Cc1ccc(Cl)cc1)C(=O)N1Cc2ccccc2C[C@H]1C(=O)N[C@H](Cc1ccc([N+](=O)[O-])cc1)C(N)=O | 9.6 nM | 310 nM | –
19 | CC(=O)N1Cc2ccccc2C[C@H]1C(=O)N[C@H](Cc1ccc(Cl)cc1)C(=O)N[C@@H](CCCNC(=N)N)C(=O)N[C@H](Cc1ccc([N+](=O)[O-])cc1)C(N)=O | 40 nM | 710 nM | –
20 | CC(=O)N[C@@H](Cc1c[nH]cn1)C(=O)N[C@H](Cc1ccccc1)C(=O)N1Cc2ccccc2C[C@H]1C(=O)N[C@@H](Cc1c[nH]c2ccccc12)C(N)=O | – | – | EC50 (Melanocortin receptor 4 [1]; hek293): 204 nM; EC50 (Melanocortin receptor 4 [2]; hek293): 18800 nM

Row | Structure (SMILES) | EC50 (Melanocortin receptor 4 [1]) | EC50 (Melanocortin receptor 4 [2]) | also measured
21 | CC(=O)N1Cc2ccccc2C[C@H]1C(=O)N[C@H](Cc1ccc(Cl)cc1)C(=O)N[C@@H](CCCNC(=N)N)C(=O)N1Cc2ccccc2C[C@H]1C(N)=O | 960 nM | 15500 nM | –
22 | CC(=O)N[C@@H](Cc1cnc[nH]1)C(=O)N[C@H](Cc1ccccc1)C(=O)N[C@@H](CCCNC(=N)N)C(=O)N[C@@H](Cc1ccc([N+](=O)[O-])cc1)C(N)=O | 195 nM | 23000 nM | –
23 | CC(=O)N1Cc2ccccc2C[C@H]1C(=O)N[C@H](Cc1ccccc1)C(=O)N[C@@H](CCCNC(=N)N)C(=O)N[C@@H](Cc1c[nH]c2ccccc12)C(N)=O (Ac-[Tic][dF]RW-NH2) | – | – | EC50 (Melanocortin receptor 4 [1]; hek293): 15 nM; EC50 (Melanocortin receptor 4 [2]; hek293): 4940 nM
24 | CC(=O)N1Cc2ccccc2CC1C(=O)N[C@H](Cc1ccc(Cl)cc1)C(=O)N[C@@H](CCCNC(=N)N)C(=O)N[C@@H](Cc1ccc(I)cc1)C(N)=O (some centres undefined) | 2.6 nM | 380 nM | –
25 | CC(=O)N[C@@H](CCCNC(=N)N)C(=O)N[C@H](Cc1ccc(Cl)cc1)C(=O)N[C@@H](CCCNC(=N)N)C(=O)N1Cc2ccccc2C[C@H]1C(N)=O | 110 nM | 2720 nM | –
26 | CC(=O)N[C@@H](CCCNC(=N)N)C(=O)N[C@H](Cc1ccc(I)cc1)C(=O)N[C@@H](CCCNC(=N)N)C(=O)N[C@@H](Cc1ccc(I)cc1)C(N)=O | – | 4.4 nM | EC50 (Melanocortin receptor 4 [5]): 3.5 nM; EC50 (Melanocortin receptor 4 [3]): > 100000 nM
27 | CC(=O)N[C@@H](Cc1c[nH]cn1)C(=O)N[C@H](Cc1ccc(Cl)cc1)C(=O)N[C@@H](CCCNC(=N)N)C(=O)N1Cc2ccccc2C[C@H]1C(N)=O | 110 nM | 7780 nM | –
28 | CC(=O)N[C@H](CCCNC(=N)N)C(=O)N[C@H](Cc1ccccc1)C(=O)N[C@@H](CCCNC(=N)N)C(=O)N[C@@H](Cc1c[nH]c2ccccc12)C(N)=O | 40 nM | 1240 nM | –
29 | CC(=O)N[C@@H](Cc1c[nH]cn1)C(=O)N[C@H](Cc1ccc(Cl)cc1)C(=O)N1Cc2ccccc2C[C@H]1C(=O)N1Cc2ccccc2C[C@H]1C(N)=O | 160 nM | 11400 nM | –
30 | CC(=O)N[C@@H](Cc1cnc[nH]1)C(=O)N[C@H](Cc1ccc(Cl)cc1)C(=O)N1Cc2ccccc2CC1C(=O)N[C@@H](Cc1ccc(I)cc1)C(N)=O (some centres undefined) | 15 nM | 790 nM | –
31 | CC(=O)N[C@@H](CCCNC(=N)N)C(=O)N[C@H](Cc1ccc(Cl)cc1)C(=O)N1Cc2ccccc2CC1C(=O)N[C@H](Cc1ccc([N+](=O)[O-])cc1)C(N)=O (some centres undefined) | – | – | EC50 (Melanocortin receptor 3): 94 nM
32 | CC(=O)N1Cc2ccccc2C[C@H]1C(=O)N[C@H](Cc1ccc(I)cc1)C(=O)N1Cc2ccccc2C[C@H]1C(=O)N[C@H](Cc1ccc([N+](=O)[O-])cc1)C(N)=O | 5.1 nM | 280 nM | –
33 | CC(=O)N[C@@H](CCCNC(=N)N)C(=O)N[C@H](Cc1ccc(I)cc1)C(=O)N1Cc2ccccc2C[C@H]1C(=O)N1Cc2ccccc2C[C@H]1C(N)=O | 2260 nM | 27500 nM | –
34 | CC(=O)N[C@@H](CCCNC(=N)N)C(=O)N[C@H](Cc1ccc(Cl)cc1)C(=O)N1Cc2ccccc2C[C@H]1C(=O)N1Cc2ccccc2C[C@H]1C(N)=O | 250 nM | 2450 nM | –
35 | CC(=O)N[C@@H](Cc1ccc(O)cc1)C(=O)N[C@H](Cc1ccccc1)C(=O)N[C@@H](CCCNC(=N)N)C(=O)N[C@@H](Cc1c[nH]c2ccccc12)C(N)=O (Ac-Y[dF]RW-NH2) | 6.2 nM | 540 nM | –
36 | CC(=O)N[C@@H](Cc1cnc[nH]1)C(=O)N[C@H](Cc1ccccc1)C(=O)N[C@@H](CCCCN)C(=O)N[C@@H](Cc1c[nH]c2ccccc12)C(N)=O | 40 nM | 6240 nM | –
37 | CC(=O)N1Cc2ccccc2C[C@H]1C(=O)N[C@H](Cc1ccc(I)cc1)C(=O)N[C@@H](CCCNC(=N)N)C(=O)N1Cc2ccccc2C[C@H]1C(N)=O | 280 nM | 2260 nM | –
38 | CC(=O)N[C@@H](Cc1cnc[nH]1)C(=O)N[C@H](Cc1ccc(I)cc1)C(=O)N1Cc2ccccc2CC1C(=O)N[C@H](Cc1ccc([N+](=O)[O-])cc1)C(N)=O (some centres undefined) | – | – | EC50 (Melanocortin receptor 3): 35 nM
39 | CC(=O)N[C@@H](Cc1cnc[nH]1)C(=O)N[C@H](Cc1ccc(Cl)cc1)C(=O)N1Cc2ccccc2CC1C(=O)N[C@H](Cc1ccc([N+](=O)[O-])cc1)C(N)=O (some centres undefined) | – | – | EC50 (Melanocortin receptor 3): 55 nM
